Experimental findings from US10441588B2, “Methods and compositions for treating bacterial infection” (Curators of the University of Missouri, priority 2012, dated 2019) are described below.

The structures appear in SMILES notation. Where a name gives a salt, the structure may show the parent alone. Read-outs that look alike come from different tables or passages of the source.

One assay deals with E. coli flagellin (fliC). Nature of the assay: microbe, parasite or virus in culture. In kind it is cell-based. As to conditions: Escherichia coli, 6 h; for activity at 5 µM: read-out: E. coli flagellin production, Relative Level vs. Control, 5 μM; for activity at 25 µM: read-out: E. coli flagellin production, Relative Level vs. Control, 25 μM.
In another assay the test system is S. epidermis biofilm. As to the kind of experiment: S. epidermis biofilm inhibition, optical density, test/control. As to conditions: growth of biofilm test/control by optical density; for activity at 100 µM / activity at 5 µM / activity at 50 µM: Staphylococcus epidermidis; for activity at 100 µM: read-out: S. epidermis Biofilm inhibition 100 μM vs. (−) Control, 100 μM; for activity at 5 µM: read-out: S. epidermis Biofilm inhibition 5 μM vs. (−) Control, 5 μM; for activity at 50 µM: read-out: S. epidermis Biofilm inhibition 50 μM vs. (−) Control, 50 μM.

The next assay relates to S. aureus biofilm. As to the kind of experiment: S. aureus biofilm inhibition, optical density, test/control. As to conditions: Staphylococcus aureus, growth of biofilm test/control by optical density. In kind it is cell-based, Staphylococcus aureus.
The subject of a further assay is S. epidermis. As to the kind of experiment: S. epidermis growth inhibition, optical density, test/control. It counts as cell-based, Staphylococcus epidermidis. As to conditions: Staphylococcus epidermidis, 100 μM; growth of bacteria test/control by optical density.
The next assay relates to S. aureus. As to the kind of experiment: S. aureus growth inhibition, optical density, test/control. It counts as cell-based, Staphylococcus aureus. As to conditions: Staphylococcus aureus, growth of bacteria test/control by optical density.
Setting [1] is: 5 μM, read-out: S. aureus Biofilm Inhibition 5 μM vs. (−) Control.
[2] abbreviates: 50 μM, read-out: S. aureus Biofilm Inhibition 50 μM vs. (−) Control.
[3] abbreviates: read-out: S. aureus Biofilm Inhibition 5 μM vs. (−) Control, 5 μM.

Consider `COc1ccc2c(c1)CC(C)(C)c1c-2nc(SCC(F)(F)F)[nH]c1=O` [IVG-00601-00A01], for which, in the assay with E. coli flagellin (fliC), the activity at 5 µM was 85.3% and the activity at 25 µM is 3.96%.
In the case of `C=CCn1c(SCC)nc2c(c1=O)C(C)(C)Cc1cc(OCCN(CC)CC)ccc1-2` [CCG-205396, 3-Allyl-8-(2-(diethylamino)ethoxy)-2-(ethylthio)-5,5-dimethyl-5,6-dihydrobenzo[h]-quinazolin-4(3H)-one], the activity at 100 µM in the assay on S. epidermis biofilm turned out to be 3.7%; with S. aureus biofilm it was 6.2%; in the assay on S. epidermis, 13%. In addition, in the assay on S. aureus biofilm, the activity at 10 µM is 68.4%.
`COc1ccc2c(c1)CC(C)(C)c1c-2nc(NCC(F)(F)F)n(C)c1=O` [IVG-00611-00A01]: in the assay with E. coli flagellin (fliC), the activity at 5 µM worked out at 19.6% and the activity at 25 µM was 13.6%.
`COc1ccc2c(c1)CC1(CCNCC1)c1c(OC)nc(SCC#N)nc1-2` [CCG-212014, 2((4,8-dimethoxy-6H-spiro[benzo[h]quinazoline-5,4′-piperidin]-2-yl)thio)acetonitrile]: the activity at 5 µM in the assay on S. epidermis biofilm was determined as 105%; in the assay on S. aureus biofilm (setting [1]), 77%. Besides, the activity at 50 µM in the assay with S. epidermis biofilm was determined as 63%; with S. aureus biofilm (setting [2]) it was 52%.
In the case of `COc1ccc2c(c1)CC(C)(C)c1c(OC)nc(SCC(F)(F)F)nc1-2` [IVG-00607-00A01], in the assay with E. coli flagellin (fliC), the activity at 5 µM came to 63.4% and the activity at 25 µM stood at 27.5%.
In the case of `C=CCn1c(SCCOC)nc2c(c1=O)C1(CCNCC1)Cc1cc(OC)ccc1-2` [CCG-206661, 3-allyl-8-methoxy-2-((2-methoxyethyl)thio)-3H-spiro[benzo[h]quinazoline-5,4′-piperidin]-4(6H)-one hydrochloride], the activity at 5 µM with S. epidermis biofilm worked out at 98.7%; with S. aureus biofilm (setting [3]), 86.9%.
For the compound `C=CCn1c(SCC)nc2c(c1=O)C1(CCNCC1)Cc1cc(OC)ccc1-2` [CCG-206664, 3-allyl-2-(ethylthio)-8-methoxy-3H-spiro[benzo[h]quinazoline-5,4′-piperidin]-4(6H)-one hydrochloride], the activity at 5 µM was found to be 87.7% in the assay with S. epidermis biofilm and 89% in the assay on S. aureus biofilm (setting [3]). Also, the activity at 50 µM in the assay on S. aureus biofilm (read-out: S. aureus Biofilm Inhibition 50 μM vs. (−) Control, 50 μM) is 2.8%.
As to `C=CCn1c(SCCOC)nc2c(c1=O)C(C)(C)Cc1cc(C(=O)NCCO)ccc1-2` [CCG-206239, 3-allyl-N-(2-hydroxyethyl)-2-((2-methoxyethyl)thio)-5,5-dimethyl-4-oxo-1,2,3,4,5,6-hexahydrobenzo[h]quinazoline-8-carboxamide], the activity at 100 µM in the assay with S. aureus biofilm is 32.7%; with S. epidermis it was 111%.
On to `CCNc1nc2c(c(=O)n1C)C(C)(C)Cc1cc(OC)ccc1-2` [IVG-00613-00A01], for which, in the assay with E. coli flagellin (fliC), the activity at 5 µM turned out to be 34.2% and the activity at 25 µM came to 13.9%.
In the same order, the values of `COc1ccc2c(c1)CC(C)(C)c1c-2nc(SCC(F)(F)F)n(C)c1=O` [IV501] are 36.2% and 47.5%.
Take `C=CCn1c(SCCOC)nc2c(c1=O)C1(CCN(C(=O)OC(C)(C)C)CC1)Cc1cc(OC)ccc1-2` [CCG-206660, tert-butyl 3-allyl-8-methoxy-2-((2-methoxyethyl)thio)-4-oxo-4,6-dihydro-3H-spiro[benzo[h]quinazoline-5,4′-piperidine]-1′-carboxylate]: the activity at 5 µM in the assay with S. epidermis biofilm turned out to be 71.5%; in the assay with S. aureus biofilm (setting [1]), 46%. The activity at 50 µM in the assay on S. epidermis biofilm was 64.3%; in the assay with S. aureus biofilm (setting [2]) it was 60.1%.
In the same order, the values of `C=CCn1c(SCCOC)nc2c(c1=O)C1(CCN(Cc3ccccc3)CC1)Cc1cc(OC)ccc1-2` [CCG-208982, 3-allyl-1′-benzyl-8-methoxy-2-((2-methoxyethyl)thio)-3H-spiro[benzo[h]quinazoline-5,4′-piperidin]-4(6H)-one] are 98.7%, 76.5%, 66% and 31.9%.
As to `COc1ccc2c(c1)CC(C)(C)c1c-2nc(N(C)CCO)n(C)c1=O` [IVG-00612-00A01], in the assay with E. coli flagellin (fliC), the activity at 5 µM came out at 18.1% and the activity at 25 µM is 12.9%.
Regarding `C=CCn1c(SCc2ccc(OC)cc2)nc2c(c1=O)C1(CCCCC1)Cc1ccccc1-2` [CCG-102483], the activity at 100 µM in the assay with S. epidermis biofilm was 78.6%; with S. epidermis, 129%.
`COc1ccc2c(c1)CC1(CCNCC1)c1c(OCC#N)nc(SCC#N)nc1-2` [CCG-212015, 2-((4-(cyanomethoxy)-8-methoxy-6H-spiro[benzo[h]quinazoline-5,4′-piperidin]-2-yl)thio)acetonitrile]: the activity at 5 µM turned out to be 93% in the assay with S. epidermis biofilm and 94% with S. aureus biofilm (setting [1]). Besides, the activity at 50 µM in the assay with S. epidermis biofilm worked out at 48%; in the assay on S. aureus biofilm (setting [2]), 33%.
As for `COc1ccc2c(c1)CC(C)(C)c1c-2nc(NCCO)n(C)c1=O` [IVG-00610-00A01], in the assay on E. coli flagellin (fliC), the activity at 5 µM came to 31.6% and the activity at 25 µM turned out to be 8.83%.
Take `C=CCn1c(SCC)nc2c(c1=O)C1(CCN(C(=O)OC(C)(C)C)CC1)Cc1cc(OC)ccc1-2` [CCG-206663, tert-butyl 3-allyl-2-(ethylthio)-8-methoxy-4-oxo-4,6-dihydro-3H-spiro[benzo[h]quinazoline-5,4′-piperidine]-1′-carboxylate]: in the assay on S. epidermis biofilm, the activity at 5 µM is 73.4% and the activity at 50 µM came out at 76.1%. Besides, the activity at 5 µM with S. aureus biofilm (setting [1]) turned out to be 49.9%.
On to `C=CCn1c(SCCOC)nc2c(c1=O)C1(CCN(C(=O)OC(C)(C)C)C1)Cc1ccccc1-2` (stereo not drawn) [CCG-208860, tert-butyl 3-allyl-2-((2-methoxyethyl)thio)-4-oxo-4,6-dihydro-3H-spiro[benzo[h]quinazoline-5,3′-pyrrolidine]-1′-carboxylate], for which the results for the activity at 5 µM with S. epidermis biofilm and with S. aureus biofilm (setting [1]) were 85% and 70.4%, respectively. The values for the activity at 50 µM with S. epidermis biofilm and in the assay with S. aureus biofilm (setting [2]) were 79.8% and 46.4%, respectively.
On to `COc1ccc2c(c1)CC(C)(C)c1c-2nc(S)n(C)c1=O` [IVG-00608-00A01], for which, in the assay on E. coli flagellin (fliC), the activity at 5 µM is 82.8% and the activity at 25 µM was found to be 48.9%.
On the same counts, the results for `COc1ccc2c(c1)CC(C)(C)c1c-2nc(OCC(F)(F)F)n(C)c1=O` [IVG-00614-00A01] are 24.4% and 26.2%.
For the compound `C=CCn1c(SCCOC)nc2c(c1=O)C1(CCN(C(=O)NC)CC1)Cc1cc(OC)ccc1-2` [CCG-211970, 3-allyl-8-methoxy-2-((2-methoxyethyl)thio)-N-methyl-4-oxo-4,6-dihydro-3H-spiro[benzo[h]quinazoline-5,4′-piperidine]-1′-carboxamide], the activity at 5 µM in the assay with S. epidermis biofilm was 79%; in the assay with S. aureus biofilm (setting [1]), 69%. The activity at 50 µM with S. epidermis biofilm was 67%; in the assay with S. aureus biofilm (setting [2]), 58%.
Take `COCCSc1nc2c(c(=O)n1CCCO)C(C)(C)Cc1ccccc1-2` [CCG-205390, 3-(3-Hydroxypropyl)-2-((2-methoxyethyl)thio)-5,5-dimethyl-5,6-dihydrobenzo[h]quinazolin-4(3H)-one]: the “S. epidermis Biofilm inhibition 10 μM vs. (−) Control” value with S. epidermis biofilm came to 0.921. Moreover, the activity at 100 µM in the assay with S. aureus biofilm came out at 52.5%; in the assay on S. aureus, 89.1%.
For `CCSc1nc2c(c(=O)n1C)C(C)(C)Cc1ccc(OC)cc1-2` [CCG-206353], in the assay with S. epidermis biofilm, the “S. epidermis Biofilm inhibition 10 μM vs. (−) Control” value was 1.053 and the activity at 100 µM was found to be 34.7%. In the assay on S. aureus biofilm, the activity at 10 µM came out at 49.4% and the activity at 100 µM was 32.3%. The activity at 100 µM in the assay with S. aureus stood at 92.1%.
